Experimental data reported in patent US12686692B2, “KRas G12D inhibitors” (Mirati Therapeutics, Inc., priority 2020, dated 2026).

Columns and labels:
[1] = tested on: KRas G12D-mediated Phosphorylation of ERK; assay: Inhibition of KRas G12D-mediated Phosphorylation of ERK in AGS cells; type: cell-based; conditions: Homo sapiens; AGS cells expressing G12D, 3 hours, phospho-ERK normalized to GAPDH
Outline: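 AGS cells (endogenous KRas G12D) were treated with compounds for 3 h in 0.5% DMSO, then fixed, permeabilized and immunostained. The phospho-ERK (Thr202/Tyr204) signal was normalized to GAPDH in-cell by infrared detection and expressed as % of DMSO control. IC50 came from a 4-parameter fit.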

KRas G12D [2] = target: T1, KRas G12D (Homo sapiens, UniProt P01116, G12D); assay: KRas G12D Binding Assay (TR-FRET displacement of labeled tracer); parameters: corresponding to amino acids 1:169, produced at Array BioPharma; biotin (protein is biotinylated); conditions: TR-FRET displacement of Cy5 labelled tracer, biotinylated GDP-loaded KRAS G12D (aa 1:169), 60 minute incubation at 22° C.
Outline: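 Biotinylated GDP-loaded human KRAS G12D (aa 1–169) incubated with Cy5 tracer, Eu-streptavidin and compound (2% DMSO final) in 50 mM HEPES pH 7.5, 5 mM MgCl2, 0.005% Tween-20, 1 mM DTT, 60 min at 22 °C. TR-FRET ratio converted to percent of control; IC50 at 50 POC from 4-parameter logistic fit.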
Target sequence in this assay (P01116 1-169 isoform P01116-2 G12D): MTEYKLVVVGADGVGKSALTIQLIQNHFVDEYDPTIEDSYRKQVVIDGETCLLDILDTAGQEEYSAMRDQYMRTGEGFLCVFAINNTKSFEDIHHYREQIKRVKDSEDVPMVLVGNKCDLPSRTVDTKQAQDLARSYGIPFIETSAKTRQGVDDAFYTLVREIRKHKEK

KRas G12D [3] = target: T1, KRas G12D; assay: KRas G12D Surface Plasmon Resonance (SPR) Binding Assay; conditions: Biacore T200, biotinylated Avidin-tagged KRAS protein on SA chip, 20 C, 1:1 binding model
Protocol: This Example illustrates that exemplary compounds of the present invention bind to KRas G12D as measured by surface plasmon resonance (SPR). Briefly, 1 L of 1.05×HBS-Mg buffer (262.5 mM BioUltra Hepes, pH 7.5, 157.5 mM NaCl, 105 mM MgCl2, 0.525 mM TCEP, […] Brij-35) was prepared and filter sterilized using a 0.22 μm bottle top filter. Approximately 50 mL of 1.05×HBS-Mg buffer was removed and saved for future dilutions. A 50 mL aliquot of DMSO (Sigma Aldrich DMSO Lot. #SHBK2079) was added and continued to stir for 10 minutes, creating the final 1.0×HBS-Mg buffer (250 mM BioUltra Hepes pH 7.5, 150 mM NaCl, 100 mM MgCl2, 0.5 mM TCEP, 0.03% Brij-35). Biacore T200 instrument was primed using 1.0×HBS-Mg buffer before docking a GE Streptavidin (SA) chip and then primed two additional times prior to beginning the immobilization step. All immobilized protein mixtures were created using 3-5 mg/mL Biotinylated Avidin-tagged KRAS protein using the following immobilization settings: SA chip type, 1 flow cells per cycle, 720 second contact time, and 5 μL/min flow rate. Normalization of the detector was also performed during the immobilization step using the GE BiaNormalize solution. All compounds were diluted to 10 mM in 100% DMSO prior to being diluted 20× in 1.05× buffer. Another 10× dilution was created using 1.0× buffer prior to performing a series of 3× dilutions to create a compound concentration curve using the following assay settings: 20 C analysis temperature, General Settings=10 Hz data collection rate and multi-detection; Assay Steps=all set to LMW kinetics; Cycle Types=LMW kinetics (60s contact time, 120s dissociation time, 100 μL/min flow rate, extra wash after injection with 50% DMSO, flow path 1,2,3,4); Flow path detection=2-1, 4-3). Data evaluation was performed using the Biacore T200 Evaluation software and data fit to 1:1 binding model.
Target sequence in this assay (P01116 1-188 isoform P01116-2 G12D): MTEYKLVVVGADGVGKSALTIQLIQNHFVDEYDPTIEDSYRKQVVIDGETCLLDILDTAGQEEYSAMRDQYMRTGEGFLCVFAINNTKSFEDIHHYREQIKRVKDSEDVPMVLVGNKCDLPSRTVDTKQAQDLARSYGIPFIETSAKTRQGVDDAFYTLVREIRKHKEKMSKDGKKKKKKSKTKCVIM

SMILES	IC50 [1]	IC50 (KRas G12D [2])	Kd (KRas G12D [3])
Cc1cccc2cccc(N3CCc4c(nc(OC[C@@H]5CCCN5C)nc4N4C[C@H]5CC[C@@H](C4)N5)C3)c12 [Example 52, 4-((1R,5S)-3,8-diazabicyclo[3.2.1]octan-3-yl)-7-(8-methylnaphthalen-1-yl)-2-(((S)-1-methylpyrrolidin-2-yl)methoxy)-5,6,7,8-tetrahydropyrido[3,4-d]pyrimidine]	14900 nM	361 nM	250000 nM
CN1CCC[C@H]1COc1nc2c(c(N3C[C@H]4CC[C@@H](C3)N4)n1)CCN(c1cccc3ccc(F)cc13)C2 [Example 72, 4-((1R,5S)-3,8-diazabicyclo[3.2.1]octan-3-yl)-7-(7-fluoronaphthalen-1-yl)-2-(((S)-1-methylpyrrolidin-2-yl)methoxy)-5,6,7,8-tetrahydropyrido[3,4-d]pyrimidine]	> 16700 nM	226 nM	923 nM
CN1CCC[C@H]1COc1nc2c(c(N3C[C@H]4CC[C@@H](C3)N4)n1)CCN(c1cc(O)c(Br)c3ccccc13)C2 [Example 109, 4-(4-((1R,5S)-3,8-diazabicyclo[3.2.1]octan-3-yl)-2-(((S)-1-methylpyrrolidin-2-yl)methoxy)-5,8-dihydropyrido[3,4-d]pyrimidin-7(6H)-yl)-1-bromonaphthalen-2-ol]	663 nM	5.5 nM	20.8 nM
C[C@@H]1CC2CN(c3nc(OC[C@@H]4CCCN4C)nc4c3CCN(c3cccc5cccc(Cl)c35)C4)C[C@H]1N2 (single isomer, unassigned) [Example 87]	13400 nM	271 nM	705 nM
CN1CCC[C@H]1COc1nc2c(c(N3C[C@H]4CC[C@@H](C3)N4)n1)CCN(c1cc(C(F)F)cc3ccccc13)C2 [Example 56, 4-((1R,5S)-3,8-diazabicyclo[3.2.1]octan-3-yl)-7-(3-(difluoromethyl)naphthalen-1-yl)-2-(((S)-1-methylpyrrolidin-2-yl)methoxy)-5,6,7,8-tetrahydropyrido[3,4-d]pyrimidine]	> 16700 nM	> 10000 nM	89900 nM
CN1CCC[C@H]1COc1nc2c(c(N3C[C@H]4C[C@@H](CC#N)[C@@H](C3)N4)n1)CCN(c1cccc3cccc(Cl)c13)C2 [Example 40, 2-((1R,5S,6S)-3-(7-(8-chloronaphthalen-1-yl)-2-(((S)-1-methylpyrrolidin-2-yl)methoxy)-5,6,7,8-tetrahydropyrido[3,4-d]pyrimidin-4-yl)-3,8-diazabicyclo[3.2.1]octan-6-yl)acetonitrile]	> 16700 nM	63.9 nM	957 nM
CN1CCC[C@H]1COc1nc2c(c(N3C[C@H]4CC[C@@H](C3)N4)n1)CCN(c1cccc3cccc(CCC#N)c13)C2 [Example 80, 3-(8-(4-((1R,5S)-3,8-diazabicyclo[3.2.1]octan-3-yl)-2-(((S)-1-methylpyrrolidin-2-yl)methoxy)-5,8-dihydropyrido[3,4-d]pyrimidin-7(6H)-yl)naphthalen-1-yl)propanenitrile]	11100 nM		617 nM
CN1CCC[C@H]1COc1nc2c(c(N3C[C@H]4CC[C@@H](C3)N4)n1)CCN(c1c(F)cccc1C(F)(F)F)C2 [Example 75, 4-((1R,5S)-3,8-diazabicyclo[3.2.1]octan-3-yl)-7-(2-fluoro-6-(trifluoromethyl)phenyl)-2-(((S)-1-methylpyrrolidin-2-yl)methoxy)-5,6,7,8-tetrahydropyrido[3,4-d]pyrimidine]	> 16700 nM	> 10000 nM	170000 nM
CN1CCC[C@H]1COc1nc2c(c(N3C[C@H]4CC[C@@H](C3)N4)n1)CCN(c1cccc3ccc(F)c(Cl)c13)C2 [Example 65, 4-((1R,5S)-3,8-diazabicyclo[3.2.1]octan-3-yl)-7-(8-chloro-7-fluoronaphthalen-1-yl)-2-(((S)-1-methylpyrrolidin-2-yl)methoxy)-5,6,7,8-tetrahydropyrido[3,4-d]pyrimidine]	> 16700 nM	15.2 nM	18.2 nM
O[C@@H]1C[C@@H]2CN(c3nc(OCC45CCCN4CC(F)C5)nc4c3CCN(c3cccc5cccc(Cl)c35)C4)C[C@H]1N2 (mixture of isomers) [Example 45, (1R,5R,6R)-3-(7-(8-chloronaphthalen-1-yl)-2-((2-fluorotetrahydro-1H-pyrrolizin-7a(5H)-yl)methoxy)-5,6,7,8-tetrahydropyrido[3,4-d]pyrimidin-4-yl)-3,8-diazabicyclo[3.2.1]octan-6-ol]	1360 nM	2.6 nM	1.9 nM
Oc1cc(N2CCc3c(nc(OC[C@@H]4CCCN4)nc3N3C[C@H]4CC[C@@H](C3)N4)C2)c2ccccc2c1Cl [Example 27, 4-(4-((1R,5S)-3,8-diazabicyclo[3.2.1]octan-3-yl)-2-(((S)-pyrrolidin-2-yl)methoxy)-5,8-dihydropyrido[3,4-d]pyrimidin-7(6H)-yl)-1-chloronaphthalen-2-ol]	11100 nM	1600 nM	91.3 nM
CC(Oc1nc2c(c(N3C[C@H]4CC[C@@H](C3)N4)n1)CCN(c1cc(O)c(Cl)c3ccccc13)C2)[C@@H]1CCCN1 (stereo partly drawn) [Example 26, 4-(4-((1R,5S)-3,8-diazabicyclo[3.2.1]octan-3-yl)-2-(1-((S)-pyrrolidin-2-yl)ethoxy)-5,8-dihydropyrido[3,4-d]pyrimidin-7(6H)-yl)-1-chloronaphthalen-2-ol]	> 16700 nM		325 nM
CN1CCC[C@H]1COc1nc2c(c(N3C[C@H]4CC[C@@H](C3)N4)n1)CCN(c1c(F)ccc(F)c1C(F)F)C2 [Example 76, 4-((1R,5S)-3,8-diazabicyclo[3.2.1]octan-3-yl)-7-(2-(difluoromethyl)-3,6-difluorophenyl)-2-(((S)-1-methylpyrrolidin-2-yl)methoxy)-5,6,7,8-tetrahydropyrido[3,4-d]pyrimidine]	> 16700 nM	> 10000 nM	97000 nM
CN1CCC[C@H]1COc1nc2c(c(N3CC4CCC(C)(C3)N4)n1)CCN(c1cc(O)cc3ccccc13)C2 (stereo partly drawn) [Example 61, 4-(4-(1-methyl-3,8-diazabicyclo[3.2.1]octan-3-yl)-2-(((S)-1-methylpyrrolidin-2-yl)methoxy)-5,8-dihydropyrido[3,4-d]pyrimidin-7(6H)-yl)naphthalen-2-ol]	6880 nM	184 nM	176 nM
CN1CCC[C@H]1COc1nc2c(c(N3C[C@H]4CC[C@@H](C3)N4)n1)CCN(c1cncc3cccc(Cl)c13)C2 [Example 58, 4-((1R,5S)-3,8-diazabicyclo[3.2.1]octan-3-yl)-7-(5-chloroisoquinolin-4-yl)-2-(((S)-1-methylpyrrolidin-2-yl)methoxy)-5,6,7,8-tetrahydropyrido[3,4-d]pyrimidine]	> 16700 nM	283 nM	438 nM
CN1CCC[C@H]1COc1nc2c(c(N3CC4CC(O)C(C3)N4)n1)CCN(c1cc(O)cc3ccccc13)C2 (mixture of isomers) [Example 4, 3-(7-(3-hydroxynaphthalen-1-yl)-2-(((S)-1-methylpyrrolidin-2-yl)methoxy)-5,6,7,8-tetrahydropyrido[3,4-d]pyrimidin-4-yl)-3,8-diazabicyclo[3.2.1]octan-6-ol]	994 nM	3.7 nM	1.5 nM
CO[C@@H]1C[C@@H]2CN(c3nc(OC[C@@H]4CCCN4C)nc4c3CCN(c3cc(O)cc5ccccc35)C4)C[C@H]1N2 [Example 37, 4-(4-((1R,5R,6R)-6-methoxy-3,8-diazabicyclo[3.2.1]octan-3-yl)-2-(((S)-1-methylpyrrolidin-2-yl)methoxy)-5,8-dihydropyrido[3,4-d]pyrimidin-7(6H)-yl)naphthalen-2-ol]	3850 nM	88.1 nM	12800 nM
CN1CCC[C@H]1COc1nc2c(c(N3C[C@H]4CC[C@@H](C3)N4)n1)CCN(c1c(F)c(O)c(F)c3ccccc13)C2 [Example 25, 4-(4-((1R,5S)-3,8-diazabicyclo[3.2.1]octan-3-yl)-2-(((S)-1-methylpyrrolidin-2-yl)methoxy)-5,8-dihydropyrido[3,4-d]pyrimidin-7(6H)-yl)-1,3-difluoronaphthalen-2-ol]		6790 nM	847 nM
